Experimental data from the NIST ThermoML archive (doi:10.1016/j.jct.2005.02.003).
± gives the expanded uncertainty stated by the source.

Test: molar heat capacity at constant pressure
Conditions: 101.33 kPa

CC(C)COC(C)(C)C [isobutyl tert-butyl ether]
Conditions	molar heat capacity at constant pressure [J/K/mol]
5 K, Crystal	0.38 ± 0.055
7.68 K, Crystal	1.339 ± 0.086
8.33 K, Crystal	1.743 ± 0.099
8.97 K, Crystal	2.217 ± 0.11
9.61 K, Crystal	2.779 ± 0.13
10 K, Crystal	3.042 ± 0.14
10.26 K, Crystal	3.32 ± 0.15
11.02 K, Crystal	4.139 ± 0.17
11.92 K, Crystal	5.166 ± 0.2
12.83 K, Crystal	6.289 ± 0.23
13.74 K, Crystal	7.45 ± 0.26
14.65 K, Crystal	8.714 ± 0.29
15 K, Crystal	9.221 ± 0.3
15.57 K, Crystal	10.02 ± 0.32
16.48 K, Crystal	11.42 ± 0.35
17.41 K, Crystal	12.82 ± 0.37
18.34 K, Crystal	14.27 ± 0.4
19.27 K, Crystal	15.69 ± 0.42
20 K, Crystal	16.85 ± 0.45
20.2 K, Crystal	17.2 ± 0.45
21.22 K, Crystal	18.77 ± 0.47
22.29 K, Crystal	20.45 ± 0.49
23.35 K, Crystal	22.1 ± 0.52
24.42 K, Crystal	23.8 ± 0.53
25 K, Crystal	24.7 ± 0.53
25.49 K, Crystal	25.53 ± 0.54
26.55 K, Crystal	27.09 ± 0.55
27.63 K, Crystal	28.56 ± 0.55
28.7 K, Crystal	30.12 ± 0.56
29.77 K, Crystal	31.74 ± 0.56
30 K, Crystal	32.07 ± 0.52
30.84 K, Crystal	33.37 ± 0.53
31.91 K, Crystal	34.71 ± 0.55
32.98 K, Crystal	36.13 ± 0.56
34.05 K, Crystal	37.59 ± 0.57
35 K, Crystal	38.76 ± 0.59
35.12 K, Crystal	38.89 ± 0.59
36.19 K, Crystal	40.25 ± 0.61
37.26 K, Crystal	41.63 ± 0.61
38.34 K, Crystal	42.83 ± 0.63
39.41 K, Crystal	44.07 ± 0.64
40 K, Crystal	44.8 ± 0.65
40.47 K, Crystal	45.31 ± 0.66
41.54 K, Crystal	46.53 ± 0.67
42.6 K, Crystal	47.83 ± 0.68
43.66 K, Crystal	48.91 ± 0.69
44.72 K, Crystal	50.25 ± 0.71
45 K, Crystal	50.39 ± 0.71
45.78 K, Crystal	51.18 ± 0.71
46.84 K, Crystal	52.39 ± 0.72
47.9 K, Crystal	53.45 ± 0.73
48.96 K, Crystal	54.66 ± 0.75
50 K, Crystal	55.71 ± 0.76
50.01 K, Crystal	55.57 ± 0.76
51.07 K, Crystal	56.57 ± 0.77
52.12 K, Crystal	57.81 ± 0.78
53.17 K, Crystal	59.02 ± 0.79
54.22 K, Crystal	60.27 ± 0.81
55 K, Crystal	60.91 ± 0.81
55.27 K, Crystal	61.56 ± 0.81
56.31 K, Crystal	63.16 ± 0.83
57.36 K, Crystal	64.51 ± 0.85
58.41 K, Crystal	64.56 ± 0.85
59.46 K, Crystal	65.29 ± 0.86
60 K, Crystal	66.03 ± 0.86
63.63 K, Crystal	70.22 ± 0.91
64.68 K, Crystal	70.75 ± 0.91
65 K, Crystal	71.08 ± 0.91
65.72 K, Crystal	72.16 ± 0.92
66.76 K, Crystal	73.11 ± 0.93
67.8 K, Crystal	74.04 ± 0.94
68.84 K, Crystal	74.44 ± 0.95
69.88 K, Crystal	75.46 ± 0.96
70 K, Crystal	76.09 ± 0.96
70.92 K, Crystal	76.66 ± 0.96
71.95 K, Crystal	77.53 ± 0.97
74.01 K, Crystal	79.84 ± 1
75 K, Crystal	81.05 ± 1
75.04 K, Crystal	81.32 ± 1
76.07 K, Crystal	82.23 ± 1
77.1 K, Crystal	83.09 ± 1
79.16 K, Crystal	85.64 ± 1.1
80 K, Crystal	85.97 ± 1.1
80.19 K, Crystal	86.55 ± 1.1
80.42 K, Glass	91.54 ± 1.8
80.56 K, Crystal	86.3 ± 1.1
81.22 K, Crystal	87.3 ± 1.1
81.39 K, Glass	92.71 ± 1.8
82.25 K, Crystal	88.55 ± 1.1
82.32 K, Glass	93.45 ± 1.8
83.28 K, Crystal	89.21 ± 1.1
83.29 K, Glass	95.2 ± 1.8
83.57 K, Crystal	89.05 ± 1.1
84.28 K, Glass	95.95 ± 1.8
85 K, Crystal	90.88 ± 1.1
85.22 K, Glass	97.36 ± 1.9
86.13 K, Glass	97.2 ± 1.9
86.51 K, Crystal	92.54 ± 1.2
87.04 K, Glass	98.86 ± 1.9
87.51 K, Crystal	93.29 ± 1.2
87.98 K, Glass	100.5 ± 1.9
88.51 K, Crystal	93.95 ± 1.2
88.93 K, Glass	101.4 ± 1.9
89.5 K, Crystal	95.12 ± 1.2
89.88 K, Glass	102.9 ± 2
90 K, Crystal	95.78 ± 1.2
90.5 K, Crystal	96.03 ± 1.2
90.83 K, Glass	103.8 ± 2.4
91.51 K, Crystal	97.11 ± 1.2
91.79 K, Glass	104.5 ± 2.4
92.51 K, Crystal	98.28 ± 1.2
92.74 K, Glass	105.8 ± 2.4
93.5 K, Crystal	99.11 ± 1.2
93.68 K, Glass	107.3 ± 2.5
94.49 K, Crystal	100.2 ± 1.2
94.62 K, Glass	107.9 ± 2.5
95 K, Crystal	100.6 ± 1.2
95.48 K, Crystal	101.4 ± 1.2
95.55 K, Glass	107.9 ± 2.5
96.48 K, Crystal	102.4 ± 1.2
96.51 K, Glass	109.8 ± 2.5
97.47 K, Crystal	103.3 ± 1.2
97.47 K, Glass	111.7 ± 2.5
98.41 K, Glass	112.7 ± 2.5
98.47 K, Crystal	104.1 ± 1.2
99.31 K, Glass	114.5 ± 2.5
99.46 K, Crystal	105 ± 1.2
100 K, Crystal	105.4 ± 1.2
100.2 K, Glass	113.8 ± 2.5
100.45 K, Crystal	105.8 ± 1.2
101.1 K, Glass	115.2 ± 2.5
101.44 K, Crystal	106.9 ± 1.2
101.97 K, Glass	117.3 ± 2.6
102.44 K, Crystal	108.1 ± 1.2
102.84 K, Glass	117.8 ± 2.6
103.44 K, Crystal	108.7 ± 1.2
103.72 K, Glass	119 ± 2.6
104.44 K, Crystal	109.5 ± 1.2
104.61 K, Glass	120.2 ± 2.6
105.43 K, Crystal	110.5 ± 1.2
105.51 K, Glass	121.5 ± 2.6
106.41 K, Crystal	111.5 ± 1.3
106.42 K, Glass	123.1 ± 2.6
107.34 K, Glass	124.7 ± 2.6
107.39 K, Crystal	112.7 ± 1.3
108.29 K, Glass	126.4 ± 2.6
108.37 K, Crystal	113.4 ± 1.3
109.25 K, Glass	128.9 ± 2.7
109.35 K, Crystal	114.2 ± 1.3
110 K, Crystal	114.9 ± 1.3
110.23 K, Glass	130 ± 2.7
110.32 K, Crystal	115.2 ± 1.3
111.21 K, Glass	134 ± 2.7
111.31 K, Crystal	116 ± 1.3
112.18 K, Glass	138.9 ± 2.7
112.29 K, Crystal	117 ± 1.3
113.14 K, Glass	146.1 ± 2.7
113.28 K, Crystal	117.8 ± 1.3
114.06 K, Glass	162.4 ± 2.9
114.26 K, Crystal	118.6 ± 1.3
114.91 K, Glass	193.9 ± 3.2
115.24 K, Crystal	119.6 ± 1.3
115.82 K, Liquid	198.1 ± 0.83
116.22 K, Crystal	120.5 ± 1.3
116.8 K, Liquid	199.6 ± 0.83
117.2 K, Crystal	121.3 ± 1.3
117.8 K, Liquid	200 ± 0.83
118.17 K, Crystal	122.1 ± 1.4
118.8 K, Liquid	200.4 ± 0.83
119.15 K, Crystal	123.1 ± 1.4
119.8 K, Liquid	200.7 ± 0.83
120 K, Crystal	124 ± 1.4
120.12 K, Crystal	124.2 ± 1.4
120.79 K, Liquid	201 ± 0.83
121.09 K, Crystal	124.8 ± 1.4
121.77 K, Liquid	201.5 ± 0.83
122.76 K, Liquid	202 ± 0.83
123.02 K, Crystal	126.6 ± 1.4
123.76 K, Liquid	202.1 ± 0.83
123.99 K, Crystal	127.8 ± 1.4
124.76 K, Liquid	202.3 ± 0.83
124.96 K, Crystal	128.5 ± 1.4
125.75 K, Liquid	202.9 ± 0.83
125.92 K, Crystal	129.5 ± 1.4
126.75 K, Liquid	202.9 ± 0.83
126.91 K, Crystal	130.2 ± 1.4
127.1 K, Crystal	130.5 ± 1.4
127.74 K, Liquid	203.5 ± 0.83
127.9 K, Crystal	130.9 ± 1.4
128.73 K, Liquid	204.2 ± 0.83
128.89 K, Crystal	131.3 ± 1.4
129.13 K, Crystal	131.9 ± 1.5
129.7 K, Liquid	204.7 ± 0.83
130 K, Crystal	132.7 ± 1.5
130.13 K, Crystal	132.5 ± 1.5
130.64 K, Liquid	204.9 ± 0.83
131.57 K, Liquid	205 ± 0.83
132.12 K, Crystal	134.9 ± 1.5
132.51 K, Liquid	205.5 ± 0.83
133.1 K, Crystal	135.4 ± 1.5
133.45 K, Liquid	205.9 ± 0.83
134.08 K, Crystal	135.9 ± 1.5
134.39 K, Liquid	206.2 ± 0.83
135.33 K, Liquid	206.4 ± 0.83
136.02 K, Crystal	137.6 ± 1.5
136.26 K, Liquid	206.9 ± 0.83
136.98 K, Crystal	138.6 ± 1.5
137.2 K, Liquid	207.9 ± 0.83
137.94 K, Crystal	138.9 ± 1.5
138.89 K, Crystal	140 ± 1.5
139.84 K, Crystal	140.1 ± 1.5
140 K, Crystal	140.5 ± 1.5
